“Also recorded” adds a separate entry of the source.
What was measured:
INS-1 (832/13) cells [1] = assay: Glucose stimulated insulin secretion (GSIS) in INS-1 (832/13) cells; assay type: cell-based, rat; details: 0.5 mM palmitate 24 h, AvoB 25 μM, ETO 100 μM
Protocol: To measure glucose stimulated insulin secretion (GSIS) in INS-1(832/13) cells a standard protocol was adopted. […] After treatments were complete, cell media was replaced with KRB (Krebs-Ringer Bicarbonate) buffer. Cells were then challenged with 3 mM glucose for 2 h in KRB buffer after which 500 μL KRB buffer was collected and frozen in −80° C. until analysis. For another 2 h, cells were challenged with 16 mM glucose after which 500 μL KRB was collected and frozen in −80° C. until analysis. The amount of insulin released into the KRB buffer was determined by an ELISA kit (Millipore, Rat/Mouse Insulin Detection kit). Data was normalized for cellular protein content, as determined by the Micro-BCA Protein Assay kit. The glucose-dependent insulin secretory index (GSIS16/3), defined as the ratio between the insulin secretion at 16 mM (stimulatory, surrogate to postprandial glucose levels) and 3 mM (basal, surrogate to fasting glucose levels) glucose was also calculated.

[2] = system: insulin signaling (pAkt-Ser473), MAPK, AMPK; assay: Immunoblotting (pAkt, pERK1/2, pP38, pAMPKα, PGC-1α) and NAO mitochondrial mass in C2C12 myotubes; assay type: cell-based, mouse
Protocol: For all ROS studies, INS-1 (832/13) cells and C2C12 myotubes were treated with or without palmitate and FAO inhibitors for 24 h in low glucose cell culture media as described for the FAO assay. After treatment, cells were trypsinized and re-suspended in PBS containing 5 μM of the fluorescent dye MitoSOX® (Molecular Probes, Invitrogen) and allowed to incubate for 5-15 minutes in a humidified atmosphere containing 5% CO2 at 37° C. Cells were then washed in PBS, placed in a 96 well plate and fluorescence was measured by flow cytometry. ROS was quantified by normalizing the mean fluorescence values of live gated cells to vehicle control. Mitochondrial membrane potential (MMP) in INS-1 (832/13) and C2C12 myotubes was measured using the cationic fluorescent dye JC-1 (Molecular Probes). JC-1 accumulates in the mitochondrial matrix in an MMP dependent manner. JC-1 fluoresces green in the cytosol where it exists as a monomer, after entering the mitochondria JC-1 monomers form J aggregates and fluoresce red, thus the red/green fluorescence ratio is used to determine MMP. After all treatments, cells were washed, trypsinized and re-suspended in PBS containing 1 μM JC-1 and allowed to incubate for 5-10 minutes in a humidified atmosphere containing 5% CO2 at 37° C. Cells were then washed in PBS, placed in a 96 well plate and fluorescence was measured by flow cytometry. MMP was quantified by normalizing the mean fluorescence values of live gated cells to vehicle control. Mitochondrial mass was measured using 10-N-nonyl acridine orange (NAO; Enzo Life Sciences, ENZ-52306), which accumulates in the mitochondria in an MMP-independent manner where it binds to cardiolipin in the inner mitochondrial membrane. Cells were treated, washed and collected as described and incubated with 0.35 μM NAO and green fluorescence was measured using flow cytometry. In all analysis (ROS, MMP and mitochondrial mass), forward vs side scatter plots were gated to exclude debris (e.g., dead cells), as cell death is associated with increased ROS and altered membrane potentials. For all cell culture experiments, after drug treatments cells were washed with chilled phosphate-buffered saline (PBS), and lysed in chilled lysis buffer with 1× protease inhibitor cocktail (Sigma). RIPA lysis buffer (Sigma-Aldrich) was used for INS-1 (832/13) cells and muscle lysis buffer for C2C12 myotubes (20 mM HEPES, 10 mM NaCl, 1.5 mM MgCl2, 1 mM DTT, 20% glycerol, and 0.1% Triton-X100). Cells were scraped, mechanically homogenized using a syringe and centrifuged at 14,000×g for 20 min at 4° C. and the supernatants were collected. For preparation of all gastrocnemius muscle lysates, 10 mg frozen tissue (wet weight) was washed in chilled PBS, placed in a dounce homogenizer, lysed in muscle lysis buffer and centrifuged at 14,000×g for 20 min at 4° C. and the supernatant was collected. Protein content for cell and tissue lysates was measured using the BCA protein assay kit (ThermoFisher) according to manufacturer's protocol. Thirty μg protein lysates were prepared in loading buffer and immunoblotting was performed by heating lysates for 5 minutes at 95° C. and subjecting them to gel electrophoresis on 10% SDS-polyacrylamide gels at 150 V for 75 minutes. Using a semi-dry transfer apparatus (Bio-Rad) the gels were then transferred at 25V for 45 minutes to a PVDF membrane and blocked with 5% BSA (Sigma) in tris-buffered saline-tween (TBS-T) for 1 hour. […]

INS-1 (832/13) cells [3] = assay: Cellular ATP content in INS-1 (832/13) cells; assay type: cell-based, rat; details: 25 μM AvoB, palmitate challenged, 24 h
Protocol: Total cellular ATP content was determined using the ATP bioluminescent assay kit (Calbiochem, 119107). Briefly, cells were seeded in white walled 96-well plates (1.2×10^4 cells/well for INS-1 and 2×10^4 cells/well for C2C12) and treated for 24 h (C2C12 cells were differentiated for 5 days prior to treatments whereas INS-1 cells were treated 24 h after seeding). After treatment, culture media was removed, and cells were lysed with nucleotide releasing buffer with gentle shaking for 5 min. ATP monitoring enzyme was then added to cell lysates and plates and luminescence was read in a Biotek Synergy HT spectrophotometer (Biotek; Winooski, VT).

With avocatin B [AvoB] the “Glucose stimulated insulin secretion (GSIS)” value (INS-1 (832/13) cells [1]) was “rescued; also recorded: GSIS was higher”, the “Palmitate induced phosphorylation of MAPK ERK1/2 and P38” value ([2]; 25 μM AvoB, 0.5 mM palmitate, 24 h) was “reduce palmitate induced phosphorylation” and the “AMPK activation (pAMPKα-Thr172)” value ([2]; 25 μM AvoB, 24 h) was “independent of AMPK activation”. The “Mitochondrial biogenesis (PGC-1α protein, NAO dye)” value ([2]; 25 μM AvoB, 24 h) was “independent”, the “Insulin signaling (insulin stimulated phosphorylation of AKT Ser473)” value ([2]; 0.5 mM palmitate 24 h, 100 nM insulin 30 min, AvoB 25 μM, DCA 1 mM, TRI 25 μM) was “restore the suppressive effects of lipotoxicity on insulin stimulated phosphorylation of AKT^Ser473” and the “Total cellular ATP content” value (INS-1 (832/13) cells [3]) was “restores total cellular ATP content”.
